Laboratory results from patent US9462805B2, “Herbicide-resistant proteins, encoding genes, and uses thereof” (Beijing Dabeinong Technology Group Co., Ltd., priority 2012, dated 2016).

Assays:
[1] = tested on: Arabidopsis T1 plants transformed with substituted 24DT02 nucleotide sequence; test: Herbicide resistance effect test of transgenic Arabidopsis T1 plants (24DT02-i); type: in vivo, Arabidopsis thaliana; conditions: number of T1 plants, genotype 24DT02-i, 560 g ae/ha sprayed; for Moderately resistant: curly rosette leaves 7 days after spraying; for Non-resistant: dead 14 days after spraying; for Highly resistant: growth consistent with blank solvent 7 days after spraying; for Lowly resistant: incapable of bolting 14 days after spraying
Description: On 7 days after planting (DAP) and 11 DAP respectively, the T1 plants (cotyledon stage and 2-4 leaves stage, respectively) were sprayed with 0.2% of Liberty herbicide solution (200 g ai/L glufosinate-ammonium) using DeVilbiss compressed air nozzle at a spraying volume of 10 ml/disc (703 L/ha) so as to provide effective amount of glufosinate-ammonium (280 g ai/ha) for each application. The survival plants (actively growing plants) were verified 4 to 7 days after the last spraying and transferred into the square pot (7 cm×7 cm) made from vermiculite and horses dung (3-5 plants per pot). The transplanted plants were covered with moisturizing mask for 3-4 days and placed in culture room at 22° C. or directly into the greenhouse as described above. Then the mask was removed and the plants were planted in greenhouse (22±5° C., 50±30% RH, 14 hours of lighting: 10 hours of darkness, minimum […] natural light+complement light) at least one day before testing the ability of 24DT02 to provide the resistance to phenoxy auxin herbicide.
24DT02 gene was used to transform Arabidopsis for the first time. At first, T1 transformants were selected from the background of un-transformed seeds, using glufosinate-ammonium selection scheme. About 40000 T1 seeds were screened among which 195 strains of T1 generation positive transformants (PAT gene) were identified, i.e. the transformation efficiency was about 0.5%. Herbicide resistance effect tests to 2,4-D dimethyl ammonium salt and agroxone of Arabidopsis T1 plants transformed with 24DT02 nucleotide sequence, substituted 24DT02 nucleotide sequence, truncated 24DT02 nucleotide sequence, added 24DT02 nucleotide sequence, control nucleotide sequence respectively and wild-type Arabidopsis plants were performed after 18 days of planting.
Arabidopsis T1 plants transformed with 24DT02 nucleotide sequence, substituted 24DT02 nucleotide sequence, truncated 24DT02 nucleotide sequence, added 24DT02 nucleotide sequence and control nucleotide sequence respectively and wild-type Arabidopsis plants were sprayed with 2,4-D dimethyl ammonium salt (560 g ae/ha, 1-fold concentration in field), agroxone (560 g ae/ha, 1-fold concentration in field) and blank solvent (water). Resistance conditions of the plants were counted 7 days and 14 days after spraying. Plants with growth conditions consistent with blank solvent (water) 7 days after spaying were classified as highly resistant plants; Plants with curly rosette leaves 7 days after spaying were classified as moderately resistant plants; Plants incapable of bolting 14 days after spaying were classified as low-resistant plants and the dead plants 14 days after spaying were classified as non-resistant plants. Because each Arabidopsis T1 plant was an independent transformation event, significant differences of individual T1 responses were expected under a given dose.

[2] = tested on: wild type maize plants; test: Herbicide-resistance effect test of wild type (CK) corn; type: in vivo; conditions: 8960 g ae/ha sprayed, 21 days after spraying; for Abnormal development of prop roots / Normal development of prop roots: number of plants
Description: (§1) Herbicide resistance effects tests to 2,4-D dimethyl ammonium salt and agroxone of maize plants containing 24DT02 nucleotide sequence, 24DT02 substituted nucleotide sequence, 24DT02 truncated nucleotide sequence, 24DT02 added nucleotide sequence, control nucleotide sequence respectively and wild type maize plants (stages V3-V4) were performed respectively.
(§2) Maize plants containing 24DT02 nucleotide sequence, 24DT02 substituted nucleotide sequence, 24DT02 truncated nucleotide sequence, 24DT02 added nucleotide sequence, control nucleotide sequence respectively and wild type maize plants were taken and spayed with 2,4-D dimethyl ammonium salt (8960 g ae/ha, 16-folds concentration in field), agroxone (8960 g ae/ha, 16-folds concentration in field) and blank solvent (water) respectively. Prop root development was counted 21 days after spaying. Three strains (S1, S2, and S3) of corn plants transfected with 24DT02 nucleotide sequence, two strains (S4 and S5) of corn plants transfected with 24DT02 substituted nucleotide sequence, two strains (S6 and S7) of corn plants transfected with 24DT02 truncated nucleotide sequence, two strains (S8 and S9) of corn plants transfected with 24DT02 added nucleotide sequence, two strains (S10 and S11) of corn plants transfected with control nucleotide sequence and 1 strain of wild type (CK) corn were selected and 10-15 plants from each stain were tested.

[3] = tested on: corn plants transfected with 24DT02 substituted nucleotide sequence; test: Herbicide-resistance effect test of transgenic corn plants (substituted 24DT02; strains S4, S5); type: in vivo, maize; conditions: 8960 g ae/ha sprayed, 21 days after spraying; for Abnormal development of prop roots / Normal development of prop roots: number of plants
Description: as §1, §2

[4] = tested on: corn plants transfected with 24DT02 added nucleotide sequence; test: Herbicide-resistance effect test of transgenic corn plants (added 24DT02; strains S8, S9); type: in vivo, maize; conditions: 8960 g ae/ha sprayed, 21 days after spraying; for Abnormal development of prop roots / Normal development of prop roots: number of plants
Description: as §1, §2

[5] = tested on: corn plants transfected with 24DT02 nucleotide sequence; test: Herbicide-resistance effect test of transgenic corn plants (24DT02; strains S1-S3); type: in vivo, maize; conditions: 21 days after spraying; for Normal development of prop roots / Abnormal development of prop roots: number of plants
Description: as §1, §2

[6] = corn strain S4 (substituted 24DT02)
[7] = corn strain S5 (substituted 24DT02)
[8] = corn strain S1 (24DT02), 8960 g ae/ha sprayed
[9] = corn strain S2 (24DT02), 8960 g ae/ha sprayed
[10] = corn strain S3 (24DT02), 8960 g ae/ha sprayed
[11] = corn strain S1 (24DT02), 8960 g ae/ha (16-fold field concentration) sprayed at V3-V4

Row | Compound | Moderately resistant [1] | Non-resistant [1] | Highly resistant [1] | Lowly resistant [1] | Ratio of the normally developed prop roots [2] [%] | Abnormal development of prop roots [2] | Normal development of prop roots [2] | Ratio of the normally developed prop roots [3, 6] [%] | Ratio of the normally developed prop roots [3, 7] [%] | Abnormal development of prop roots [3, 6] | Normal development of prop roots [3, 6] | Abnormal development of prop roots [3, 7] | Normal development of prop roots [3, 7] | Ratio of the normally developed prop roots ([4]; corn strain S8 (added 24DT02)) [%] | Ratio of the normally developed prop roots ([4]; corn strain S9 (added 24DT02)) [%] | Abnormal development of prop roots ([4]; corn strain S8 (added 24DT02)) | Normal development of prop roots ([4]; corn strain S8 (added 24DT02)) | Abnormal development of prop roots ([4]; corn strain S9 (added 24DT02)) | Normal development of prop roots ([4]; corn strain S9 (added 24DT02)) | Ratio of the normally developed prop roots [5, 8] [%] | also measured
1 | CNC.O=C(O)COc1ccc(Cl)cc1Cl [2,4-D dimethyl ammonium salt] | 4 | 4 | 8 | 1 | 0 | 16 | 0 | 87.50 | 100.00 | 2 | 14 | 0 | 15 | 80.00 | 78.57 | 3 | 12 | 3 | 11 | 81.25 | Ratio of the normally developed prop roots [5, 9]: 91.67%; Ratio of the normally developed prop roots [5, 10]: 85.71%; Normal development of prop roots [5, 11]: 13; Abnormal development of prop roots [5, 8]: 3; Abnormal development of prop roots [5, 9]: 1; Normal development of prop roots [5, 9]: 11; Abnormal development of prop roots [5, 10]: 2; Normal development of prop roots [5, 10]: 12
2 | Cc1cc(Cl)ccc1OCC(=O)O [agroxone] | 5 | 6 | 9 | 1 | 0 | 16 | 0 | 81.25 | 93.33 | 3 | 13 | 1 | 14 | 86.67 | 84.62 | 2 | 13 | 2 | 11 | 87.50 | Ratio of the normally developed prop roots [5, 9]: 100.00%; Ratio of the normally developed prop roots [5, 10]: 92.31%; Normal development of prop roots [5, 11]: 14; Abnormal development of prop roots [5, 8]: 2; Abnormal development of prop roots [5, 9]: 0; Normal development of prop roots [5, 9]: 12; Abnormal development of prop roots [5, 10]: 1; Normal development of prop roots [5, 10]: 12
